From patent publication US8207223B2, “Pharmaceutical composition for treatment of diseases associated with decrease in bone mass comprising EP4 agonist as active ingredient” (Ono Pharmaceutical Co., Ltd., priority 2001, dated 2012)
Each block holds one compound with its values, some of them ahead of it.

How the values were obtained:
[1] = tested on: collagen-induced arthritis; experiment: Arthritis induced by collagen in rats; format: in vivo, female DA/Slc rat; conditions: limbs scored at 27 days, full score 30, *p < 0.05
Protocol: (iv) Inhibitive Effect for Chronic Articular Rheumatism
(1) Arthritis Induced by Collagen in Rats
Experiment was performed according to the method of Osterman et al. (Inflamm. Res., 44, 258-263). An inducing agent (an emulsion prepared by adding an equal volume of physiological saline and 2 equivalent volume of incomplete Freund adjuvant to 0.3% solution of type II collagen of bovine origin) 0.1 ml each was applied intracutaneously to the 4 sites of the back of a female DA/Slc rat. After a lapse of 1 week, the same inducing agent was further applied intracutaneously to the tail root to induce arthritis. At 27 days the limbs were scored responding to the degree of redness and edema and assessed as 30 was regarded as full scores. The compound of the invention was dissolved in an equimolar amount of 0.02 mole/L sodium hydroxide solution, diluted with distilled water, and orally given 3 times a day from the next day of the first administration of inducer.

fibula bone fracture = experiment: Effect of accelerating cure of bone fracture (rat fibula fracture model; callus bone density and three-point bending strength); format: in vivo, male IGS rats; conditions: 50 ng/kg/min intravenously for 2 hours twice a day for 21 days
Protocol: (ix) Effect of Accelerating Cure of Bone Fracture
According to the methods of R. Sakai (Bone, 25, 191-196 (1999)), H. Kawaguchi (Endocrinology, 135, 774-781 (1994)) and T. Hoshino (J. Biomed Mater Res., 51, 229-306 (2000)), a bone fracture model was prepared with male IGS rats of 8 weeks of age. Hair of the left hind-limb of a rat was cut under anesthetization with pentobarbital Na, and Viccillin S 500 (500 mg potency) (Meiji Seika) was intramuscularly injected at a dose of 10 mg potency/100 μl distilled water/body. Then, the skin on the fibula (from the back of knee joint to tendo Achillis) was incised to ablate the muscular tissue and expose the fibula. […] The recovered fibulae were taken radiographs to assess development of the cure of fracture based on the presence of a fracture line and callus formation, and the density and strength of the bone around the fracture portion were measured. […]
The bone density of the callus region at the fracture position of the recovered fibula was measured referring to the reports of C. […] During photographing, a phantom for quantitative analysis of bone salt for mice (Kyoto Kagaku Co.) was set together in order to make an analytical curve for measurement of bone density. The image was read by a Bio-imaging Analyzer BAS-1800 (FUJIFILM)/Image Reader (FUJIFILM) and processed with an Image Gauge, ver.3.1.12 (FUJIFILM). […]

murine EP4 = molecular target: T1, murine EP4 (Mus musculus, UniProt P32240); experiment: Receptor-binding experiment (3H-PGE2 binding inhibition) using membranes of CHO cells expressing prostanoid receptor sub-types; conditions: binding to EP4 receptor, CHO cell membranes, read-out: Dissociation Constant Ki
T1 construct: expressed in transfected cells; host or cells: CHO cells (membrane fraction)
Protocol: (i) Experiment for receptor-binding using cells which express prostanoid receptor sub-types
According to the method of Sugimoto et al. (J. Biol. Chem., 267, 6463-6466 (1992)), CHO cells which expressed prostanoid receptor sub-types (murine EP1, EP2, EP3α, and EP4, respectively) were prepared and used as membrane authentic samples.
A reaction solution (200 μl) containing the prepared membrane fraction (0.5 mg/ml) and ^3H-PGE2 was incubated at room temperature for 1 hour. The reaction was terminated with ice cold buffer (3 ml), and the reaction mixture was filtered under suction through a glass filter (GF/B), on which the binding ^3H-PGE2 was trapped, and the binding radioactivity was measured by means of a liquid scintillator.
The Kd value was obtained from the Acatchard plots [Ann. N.Y. Acad. Sci., 51, 660 (1949)]. Non-specific binding was obtained as the binding in the presence of an excess amount (2.5 μM) of unlabelled PGE2. Measurement of the binding inhibition for ^3H-PGE2 with the compounds of the invention was performed by adding ^3H-PGE2 (2.5 nM) and a series of concentrations of the compound of the invention. In this reaction, the following buffer was used in all cases. • Buffer: 10 mM potassium phosphate (pH 6.9), 1 mM EDTA, 10 mM MgCl2, and 0.1M NaCl.
Dissociation constant Ki (μM) of each compound was calculated from the following equation. Ki=IC50/(1+([C]/Kd))

T1 sequence (P32240 whole entry): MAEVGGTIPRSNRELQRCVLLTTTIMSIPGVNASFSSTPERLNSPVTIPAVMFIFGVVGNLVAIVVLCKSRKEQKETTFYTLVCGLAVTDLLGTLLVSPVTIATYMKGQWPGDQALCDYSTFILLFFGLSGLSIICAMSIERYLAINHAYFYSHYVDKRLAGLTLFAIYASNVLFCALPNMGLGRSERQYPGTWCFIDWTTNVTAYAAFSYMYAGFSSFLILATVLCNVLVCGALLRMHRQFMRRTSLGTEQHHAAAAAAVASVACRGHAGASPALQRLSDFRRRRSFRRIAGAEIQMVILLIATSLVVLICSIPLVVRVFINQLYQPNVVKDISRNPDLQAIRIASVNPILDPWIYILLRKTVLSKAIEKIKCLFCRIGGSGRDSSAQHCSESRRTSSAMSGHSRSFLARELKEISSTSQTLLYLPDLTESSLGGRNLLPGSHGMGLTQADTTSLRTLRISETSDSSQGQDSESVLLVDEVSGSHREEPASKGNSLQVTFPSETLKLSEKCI

Compound: O=C1CC[C@H](/C=C/[C@@H](O)Cc2ccc(F)cc2)N1CCSCCCCO [Example 4 (h), (15α,13E)-9-Oxo-15-hydroxy-16-(4-fluorophenyl)-17,18,19,20-tetranor-5-thia-8-azaprost-13-en-1-ol]
- Arthritic Score (Means ± SE) ([1]; 300 μg/kg orally 3 times a day): 9.8 ± 1.9*

Compound: O=C(O)CCCSCCN1C(=O)CC[C@@H]1/C=C/[C@@H](O)Cc1ccc(F)cc1 [Example 3 (l), (15α,13E)-9-Oxo-15-hydroxy-16-(4-fluorophenyl)-17,18,19,20-tetranor-5-thia-8-azaprost-13-enoic acid]
- Arthritic Score (Means ± SE) ([1]; 100 μg/kg orally 3 times a day): 16.3 ± 3.0*

Compound: COCc1cccc(C[C@H](O)/C=C/[C@H]2[C@H](O)CC(=O)[C@@H]2CCSCCCC(=O)OC)c1 [Compound (1), (11α,15α,13E)-9-Oxo-11,15-dihydroxy-16-(3-methoxymethylphenyl)-17,18,19,20-tetranor-5-thiaprost-13-enoic acid methyl ester]
- Bone Density (fibula bone fracture; callus region): 42.8 ± 2.58 mg/cm^2
- Fracture Strength (fibula bone fracture; three-point bending test): 30.4 ± 12.4% of intact

- Ki (murine EP4): 710 pM
Compound: CCCc1cccc(C[C@H](O)/C=C/[C@H]2CCC(=O)N2CCSCCCC(=O)O)c1 [Example 3(e), (15α,13E)-9-Oxo-15-hydroxy-16-(3-propylphenyl)-17,18,19,20-tetranor-5-thia-8-azaprost-13-enoic acid]

- Ki (murine EP4): 240 pM
Compound: O=C(O)CCCCCCN1C(=O)CC[C@@H]1/C=C/[C@@H](O)Cc1cccc(C#Cc2ccccc2)c1 [Example 2(pp), (15α,13E)-9-Oxo-15-hydroxy-16-(3-(2-phenylethynyl)phenyl)-17,18,19,20-tetranor-8-azaprost-13-enoic acid]

Compound: Cc1ccc(C[C@H](O)/C=C/[C@H]2CCC(=O)N2CCSCCCC(=O)O)o1 [Example 3 (kk), (15α,13E)-9-Oxo-5-hydroxy-16-(5-methylfuran-2-yl)-17,18,19,20-tetranor-5-thia-8-azaprost-13-enoic acid]
- Arthritic Score (Means ± SE) ([1]; 100 μg/kg orally 3 times a day): 11.9 ± 3.6*

Compound: O=C(O)CCCSCCN1C(=O)CC[C@@H]1/C=C/[C@@H](O)Cc1cccc(Cl)c1 [Example 3 (b), (15α,13E)-9-Oxo-15-hydroxy-16-(3-chlorophenyl)-17,18,19,20-tetranor-5-thia-8-azaprost-13-enoic acid]
- Arthritic Score (Means ± SE) ([1]; 300 μg/kg orally 3 times a day): 19.3 ± 1.4*
